pIC50: −log10 of the molar value. Structures can show the parent of a compound that is named as a salt.
How the values were obtained:
[1] = tested on: recurrent herpes simplex virus infections; conditions: cited from earlier work; for Healing time: topical treatment, recurrent cutaneous virus diseases
[2] = cited from earlier work
[3] = tested on: reverse transcriptase of HIV; conditions: cited from earlier work
[4] = tested on: herpes simplex virus type 1 (strain R39); assay: Test 4. Antiviral effect of liposomal foscarnet on HSV-1 (HL cells, ELISA); type: cell-based, HSV-1; human lung fibroblast (HL) cells; conditions: Human alphaherpesvirus 1, 24 h, read-out: Antiviral effect on HSV-1, IC50
Description: Liposomes were constructed according to Formulations 7 and 8. The liposomes were not purified from the surrounding foscarnet-containing medium and antiviral effects by the liposomes might therefore be underestimated by cell culture assays. Antiviral effects of liposomes against herpes simplex virus type 1 were tested using previously published methods (Abele, G., et al., Antiviral Chemistry & Chemotherapy (1991) 2(3), 163-169) with some modifications. Confluent human lung fibroblast (HL) cells were infected with HSV-1 (strain R39) for one hour at 37° C. The virus inoculum was removed, and various dilutions of foscarnet-loaded liposomes, empty liposomes or foscarnet in medium were added. After 24 h the cells were lysed by addition of Triton X100, subjected to a freeze-thaw cycle, and the cell lysates tested for viral replication in an HSV-1-specific ELISA. The results obtained at a virus dilution of 1:500 and an incubation time of 24 h are stated in the following Table 4.

[5] = phospholipid liposomes; WO 89/05152; cited from earlier work
[6] = topical, 3% formulation; cited from earlier work
Kaposi's sarcoma = conditions: intravenous treatment; cited from earlier work
human herpesvirus = conditions: in vitro; cited from earlier work
[7] = Systemic uptake of topically applied foscarnet (previous research); type: in vivo; conditions: about 100 mg of 5% foscarnet cream (about 5 mg foscarnet)
[8] = Test 5. Cytotoxicity of liposomal foscarnet (PBMC growth); type: cell-based; conditions: human PBMC, cell counter, read-out: Cytotoxicity, CIC50 (cell growth inhibitory concentration)
Description: Liposomes were prepared according to Formulation 7 above and the cytotoxic effects thereof tested using human peripheral blood mononuclear cells (PBMC) as previously described (method according to Palmer, S., et al., Aids Research and Human Retroviruses, Vol.11, No. 10, 1995 with some modifications). The PBMCs were incubated with the drugs in medium for 72 h and cell growth was measured in an automatic cell counter. Above 10 000 μM the liposomes themselves interfered with the cell counting.

HIV = conditions: in vitro; cited from earlier work

## Nc1nc2c(ncn2COCCO)c(=O)[nH]1 [acyclovir, 9-[(2-hydroxyethoxy)methyl]guanine]
[1]
  Healing time: only reduced by approximately one day
[2]; human, in vivo
  Adverse effects of therapy: very few adverse effects

## CC(=O)OCC(CCn1cnc2cnc(N)nc21)COC(C)=O [famciclovir]
[1]
  Healing time: only reduced by approximately one day

## O=C(O)P(=O)(O)O [foscarnet, trisodium salt of phosphonoformic acid, hexahydrate]
[3]
  Inhibition of reverse transcriptase of HIV (in words): inhibits the reverse transcriptase of HIV
[1]; topical, conventional cream, recurrent HSV, immunocompetent patients
  Healing time of lesions: shortened by approximately one day
[4]
  pIC50: 3.82
[5]
  Intracellular antiviral activity in liposome-encapsulated form: several-fold higher intracellular antiviral activity
[6]
  Irritation of mucous membranes or the skin: known to cause irritation of mucous membranes or the skin
Kaposi's sarcoma
  Response of Kaposi's sarcoma patients: some patients have responded
Human herpesvirus
  Activity against human herpesvirus (in words): proven activity against all human herpesvirus in vitro
[7]
  Amount entering the systemic circulation per application: ≤ 0.25 mg per application
[8]
  CC50 at 72 h: 2.46 mM
HIV
  Antiviral activity against replication of HIV (in words): shows antiviral activity against the replication of HIV in vitro
[2]; intravenous, CMV retinitis and acyclovir-resistant HSV in AIDS patients
  Side-effect of intravenous treatment: renal function impairment

## Nc1nc2c(ncn2CCC(CO)CO)c(=O)[nH]1 [penciclovir, 9-(4-hydroxy-3-hydroxymethylbut-1-yl)-guanine]
[1]
  Healing time: only reduced by approximately one day

## CC(C)[C@H](N)C(=O)OCCOCn1cnc2c(=O)[nH]c(N)nc21 [valaciclovir, L-valyl acyclovir]
[1]
  Healing time: only reduced by approximately one day
